Test results published in patent US8815872B2, “Macrocyclics pyrimidines as aurora kinase inhibitors” (Merck Patent GmbH, priority 2008, dated 2014).
Where “and” joins values, the source holds several entries; their conditions need not be identical. Equal entries are not always repeated. Where two headings read alike, the source gives them in different places.

Tests used:
[1] = biological target: kinases (not incl. Aurora); assay: Kinase inhibition profile (not incl. Aurora); format: biochemical; details: hit means >79% inhibition
Procedure: (§1) The Aurora and other kinase assays described here were performed on two Caliper Life Sciences systems, the LC3000 and the Desktop Profiler. These provide data on enzyme activity via measurement of the relative amounts of phosphorylated or unphosphorylated fluorescently labelled substrate peptide at the end of an enzymatic reaction. These different states of peptide are resolved by applying a potential difference across the sample. The presence of a charged phosphate group on the product (as opposed to the substrate) causes a different peptide mobility between the two peptides. This is visualized by excitation of a fluorescent label on the substrate and product peptides and represented as peaks within the analysis software.
The Desktop Profiler utilizes the same principal as the LC 3000 for calculating percentage conversion of a substrate to product. Caliper Life Sciences provided proprietary flash frozen pre-made 384 well plates containing selected kinases. Each column in the 384 well plate contained a particular selected kinase. A second plate, the ‘substrate plate’ contained a mix of fluorescently labeled peptide substrate and ATP. These were arranged in columns so that transfer for substrate plate to enzyme plate provided the correct enzyme with the correct substrate/ATP concentration.
Compounds were added to a thawed enzyme plate in the desired format, in single concentrations. Reactions were initiated by transfer of the ubstrate/ATP mix from the substrate plate. The enzyme plate was incubated for 90 mins at 25 °C. The reaction was stopped by addition of […] of Stop Buffer (100 mM HEPES pH 7.5, 0.015% Brij-35, 10 mM EDTA (Sigma, E7889)).
Plates were read in a manner identical to that of the LC3000, and the ratio between substrate and product peaks provided the activity of the enzyme in that well. This was best represented by a plate heat map which colors each well by percent inhibition as compared to positive and negative controls (no inhibitors and no ATP respectively).

Aurora A = biological target: T1, Aurora A (Homo sapiens, UniProt O14965); assay: Aurora A enzyme assay (Caliper LC3000 mobility shift); format: biochemical
T1 construct: N-terminal GST fusion with full length Aurora A (1-403 amino acids); purchased Carna Biosciences 05-101
T1 sequence (O14965 1-403): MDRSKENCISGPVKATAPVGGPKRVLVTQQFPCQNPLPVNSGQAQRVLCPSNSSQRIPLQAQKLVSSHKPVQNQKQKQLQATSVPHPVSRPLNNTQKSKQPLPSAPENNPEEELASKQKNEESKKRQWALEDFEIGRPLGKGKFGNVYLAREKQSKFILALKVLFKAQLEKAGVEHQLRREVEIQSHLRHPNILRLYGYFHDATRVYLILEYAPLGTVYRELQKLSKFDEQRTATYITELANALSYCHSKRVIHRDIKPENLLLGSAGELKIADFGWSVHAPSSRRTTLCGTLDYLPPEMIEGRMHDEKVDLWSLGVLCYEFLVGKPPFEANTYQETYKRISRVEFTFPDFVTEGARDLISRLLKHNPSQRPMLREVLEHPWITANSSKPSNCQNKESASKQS
Procedure: as §1
For example, in order to measure inhibitor activity of Aurora A inhibitors in the Caliper Life Sciences LC3000, a TTP Mosquito liquid handling instrument was used to place […] of an appropriate concentration of inhibitor in 100% DMSO (for a dose response curve calculation) into each well of a 384-well plate. To this reaction components were added to a final volume of 25 μl: • 0.067 ng/μl GST-Aurora A (Carna Biosciences 05-101. N-terminal GST fusion with full length Aurora A (1-403 amino acids), accession number NP_940835.1). • 15 μM ATP (Fluka, 02055) • 1 mM DTT (Sigma, D0632) • 1 mM MgC12 (Sigma, M1028) • 1 μM substrate peptide (sequence FITC-LRRASLG-(CONH2), synthesized by Tufts Peptide Synthesis service. • 100 mM HEPES pH 7.5 (Calbiochem, 391338) • 0.015% Brij-35 (Sigma, B4184)
The reaction was incubated for 90 min at 25° C., and then stopped by the addition of 70 μl of Stop buffer (100 mM HEPES pH 7.5, 0.015% Brij-35, 10 mM EDTA (Sigma, E7889)).
The plate was read on a Caliper LC 3000 in an Off-Chip mobility shift assay format, using the following parameters for a 12-sipper chip: screening pressure −1.8 psi, upstream voltage −2700, downstream voltage −1000. These conditions cause unphosphorylated substrate and phosphorylated product peptide to resolve as separate peaks allowing direct measurement of percentage of conversion of substrate to product. The percent conversion was plotted against concentration of inhibitor to produce a sigmoidal dose response curve, from which an IC50 was calculated using XLFit for Microsoft Excel.

MiaPaca2 = assay: Cellular activity MiaPaca2; format: cell-based
Procedure: (§2) The susceptibility of a particular cell to treatment with the compounds according to the invention was determined by in vitro tests. Typically, a culture of the cell was combined with a compound according to the invention at various concentrations for a period of time that was sufficient to allow the active agents to induce cell death or to inhibit migration, usually between about one hour and one week. In vitro testing was carried out using cultivated cells from a biopsy sample. The viable cells remaining after the treatment then were counted.

A549 = assay: Cellular activity A549; format: cell-based
Procedure: as §2

Aurora B = Aurora B (Homo sapiens, UniProt Q96GD4); assay: Aurora B enzyme assay (Caliper); format: biochemical
Chain of Aurora B (Q96GD4 whole entry): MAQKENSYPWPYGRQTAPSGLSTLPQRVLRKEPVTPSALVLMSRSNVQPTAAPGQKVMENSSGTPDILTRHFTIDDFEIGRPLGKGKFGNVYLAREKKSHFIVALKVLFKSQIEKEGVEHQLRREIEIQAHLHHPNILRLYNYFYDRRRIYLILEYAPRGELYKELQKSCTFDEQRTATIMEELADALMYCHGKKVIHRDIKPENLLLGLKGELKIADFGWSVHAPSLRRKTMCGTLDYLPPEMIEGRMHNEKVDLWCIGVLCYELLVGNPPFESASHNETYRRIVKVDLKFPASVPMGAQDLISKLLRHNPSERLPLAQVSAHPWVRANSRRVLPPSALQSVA
Procedure: as §1

| Structure (SMILES) | Kinase Inhibition Profile (not incl. Aurora) # kinases hit/# kinases tested ([1]; at 1 μM) | IC50 (Aurora A) [nM] | IC50 (MiaPaca2; Homo sapiens, MIA PaCa-2) [nM] | IC50 (A549; Homo sapiens) [nM] | IC50 (Aurora B) [nM] | also measured |
| --- | --- | --- | --- | --- | --- | --- |
| NC(=O)[C@H]1[C@H]2C[C@H]3[C@H]1Nc1nc(ncc1F)Nc1cccc(c1)[C@H](O)CS[C@@H]3C2 | 0/76 at 1 μM | 1 to 100 | 101 to 1000 | 101 to 1000 | 1 to 100 | – |
| CN1CCN(c2cc3cc(c2)S(=O)(=O)NC[C@@H]2C[C@@H]4C[C@H]2[C@@H](Nc2nc(ncc2F)N3)[C@H]4C(N)=O)CC1 | – | 1 to 100 | – | – | – | ring closure, yield of all isomers (from CN1CCN(c2cc(N)cc(S(=O)(=O)NC[C@@H]3C[C@@H]4C[C@H]3[C@@H](Nc3nc(Cl)ncc3F)[C@H]4C(N)=O)c2)CC1, snar bond, HCl): 6.8% |
| CC(=O)N1Cc2cccc(c2)Nc2ncc(F)c(n2)N[C@@H]2[C@@H]3C[C@@H](C[C@H]3C1)[C@@H]2C(N)=O | – | – | – | – | – | ring closure, yield of all isomers (from CC(=O)N(Cc1cccc(N)c1)C[C@@H]1C[C@@H]2C[C@H]1[C@@H](Nc1nc(Cl)ncc1F)[C@H]2C(N)=O, snar bond): 45.4% |
| Fc1cnc2nc1NC1CCC(CC1)OCC=CCOc1cccc(c1)N2 | – | – | – | – | – | ring closure, yield of all isomers (from C=CCOc1cccc(Nc2ncc(F)c(NC3CCC(OCC=C)CC3)n2)c1, rcm bond, Grubbs 2nd generation, then Hoveyda-Grubbs 2nd generation, dichloromethane, 2.0 mM, 40.0 °C, 76.0 h): 2.7% and 5.9% |
| Fc1cnc2nc1NC1CCCC(C1)OCC=CCOc1cccc(c1)N2 (stereo not shown) | – | – | – | – | – | ring closure, yield of all isomers (from C=CCOc1cccc(Nc2ncc(F)c(NC3CCCC(OCC=C)C3)n2)c1, rcm bond, Grubbs 2nd generation, dichloromethane, 2.0 mM, 40.0 °C, 16.0 h): 1.5% |
| NC(=O)[C@H]1[C@@H]2CC3CNC(=O)c4cccc(c4)Nc4ncc(F)c(n4)N[C@@H]1[C@@H]3C2 (stereo partly shown) | – | – | – | – | – | ring closure, yield of all isomers (from CC(C)(C)OC(=O)Nc1cccc(C(=O)NCC2C[C@@H]3C[C@H]2[C@@H](Nc2nc(Cl)ncc2F)[C@H]3C(N)=O)c1, snar bond, TFA, 2 steps): 1.8% |
| NC(=O)[C@H]1[C@@H]2CC3CNS(=O)(=O)c4cccc(c4)Nc4ncc(F)c(n4)N[C@@H]1[C@@H]3C2 (stereo partly shown) | – | – | – | – | – | ring closure, yield of all isomers (from NC(=O)[C@H]1[C@@H]2CC(CNS(=O)(=O)c3cccc(N)c3)[C@@H](C2)[C@H]1Nc1nc(Cl)ncc1F, snar bond): 8.5% |
| NC(=O)[C@H]1[C@@H]2C[C@H]3CNC(=O)Cc4cccc(c4)Nc4ncc(F)c(n4)N[C@@H]1[C@@H]3C2 | – | – | – | – | – | ring closure, yield of all isomers (from NC(=O)[C@H]1[C@@H]2C[C@@H](CNC(=O)Cc3cccc(N)c3)[C@@H](C2)[C@H]1Nc1nc(Cl)ncc1F, snar bond, 2 steps): 7% |
| NC(=O)[C@H]1[C@H]2C[C@H]3[C@H]1Nc1nc(ncc1F)Nc1cccc(c1)C(=O)CS[C@@H]3C2 [drawing 214] | 2/36 at 1 μM | 1 to 100 | 1000 to 6250 | 1000 to 6250 | 1 to 100 | – |
| O=C(O)[C@H]1[C@H]2C[C@H]3[C@H]1Nc1nc(ncc1F)Nc1cccc(c1)OCCS[C@@H]3C2 [drawing 218] | – | 1 to 100 | > 6250 | > 6250 | 1 to 100 | Kinase Inhibition Profile (not incl. Aurora) # kinases hit/# kinases tested ([1]; at 10 μM): 8/36 at 10 μM |
| NC(=O)[C@H]1[C@H]2C[C@H]3[C@H]1Nc1nc(ncc1F)Nc1cccc(c1)OCCS[C@@H]3C2 [drawing 219] | 11/36 at 1 μM | 1 to 100 | 1000 to 6250 | 1000 to 6250 | 1 to 100 | – |
| CN1CCN(c2ccc3cc2OCCS[C@@H]2C[C@@H]4C[C@H]2[C@@H](Nc2nc(ncc2F)N3)[C@H]4C(N)=O)CC1 [drawing 220] | 12/51 at 1 μM | 1 to 100 | 101 to 1000 | 101 to 1000 | 1 to 100 | – |
| NC(=O)[C@H]1[C@H]2C[C@H]3[C@H]1Nc1nc(ncc1F)Nc1cccc(c1)NC(=O)CS[C@@H]3C2 [drawing 221] | 12/36 at 1 | 1 to 100 | 101 to 1000 | 101 to 1000 | 1 to 100 | – |
| CN1CCN(c2ccc3cc2NC(=O)CS[C@@H]2C[C@@H]4C[C@H]2[C@@H](Nc2nc(ncc2F)N3)[C@H]4C(N)=O)CC1 [drawing 222] | 13/36 at 1 μM | 1 to 100 | 101 to 1000 | 101 to 1000 | 1 to 100 | – |
| N#Cc1ccc2cc1NC(=O)CS[C@@H]1C[C@@H]3C[C@H]1[C@@H](Nc1nc(ncc1F)N2)[C@H]3C(N)=O [drawing 223] | 12/38 at 1 μM | 1 to 100 | > 6250 | > 6250 | 101 to 1000 | – |
| NC(=O)[C@H]1[C@@H]2CC3CNC(=O)c4cccc(c4)Nc4ncc(F)c(n4)N[C@@H]1[C@@H]3C2 (stereo partly shown) [drawing 254] | 1/76 at 1 μM | 1 to 100 | 1000 to 6250 | 1000 to 6250 | 1 to 100 | – |
| NC(=O)[C@H]1[C@@H]2CC3CNC(=O)c4cccc(c4)Nc4ncc(F)c(n4)N[C@@H]1[C@@H]3C2 (stereo partly shown) [drawing 259] | 1/76 at 1 μM | 1 to 100 | – | – | 1 to 100 | IC50 (MiaPaca2; MiaPaca2): 1000 to 6250 nM; IC50 (A549): 1000 to 6250 nM |
